Test results from patent publication US9341616B2, “Sweet taste receptor chimeric proteins and use thereof” (AJINOMOTO CO., INC., priority 2014, dated 2016).
Residues, ends and D or L forms follow the SMILES beside them.

biological target: h-mT1R2-471/T1R3mosaicA (UniProt Q8TE23+Q925D8, A12W/A31M/A537S/A558R/A564V/A568V/A570T/A588V/A645S/A649T/A658V/A698V/A702T/A782V/A793V/A807V/C582S/C678S/D480N/E16H/E530V/E534N/E542M/E548N/E725V/F14L/F29L/F525Y/F541I/F612A/F622V/F665L/F695L/G696N/G701T/H484Y/H528R/H728R/I36V/I481V/I486P/I490V/I510L/I518V/I595M/I60P/I617V/I643V/I645L/I692L/I695G/I706V/I740A/I803L/K30R/K476T/K504M/K555R/K565R/K626T/K714N/K818R/K827G/L17P/L471T/L521P/L560F/L571I/L578I/L610P/L631F/L636F/L639V/L684P/L688V/L702I/L734M/L735F/L800F/L823M/L825Q/M19T/M492I/M616G/M644L/M682V/M690V/M744T/M748V/N477Y/N52R/N540G/N541S/N547G/N58S/N63T/N675D/N721H/P545F/P561R/P564S/P61V/P638T/P824S/Q32K/Q472E/Q474R/Q479S/Q536L/Q53S/Q546K/Q550E/Q555R/Q56R/Q611L/Q676H/Q757R/Q795R/Q831P/R473T/R498S/R632Q/R667S/S22P/S45E/S501P/S547N/S550A/S576L/S595F/S610P/S628F/S635P/S637R/S663R/S670G/S679G/S681F/S703N/S717H/S727G/S784D/S804G/T46A/T50G/T529S/T542A/T549I/T609V/T629S/T642S/T663I/T694M/T705I/T706G/T716I/T813A/V508I/V512P/V557A/V573A/V584A/V585L/V613L/V617M/V673M/V687A/V691A/V694A/V718L/V718M/V723A/V729T/V738A/V741L/V774I/V791M/V805L/V812A/V821L/W599R/W676R/W824R/Y533F/Y615F/Y671F/Y680C/Y769S/Y783H/Y794L); conditions: Table 4; genes h-mT471/T3mA (h-mT1R2-471, T1R3mA); HEK293E cells
Sequence (Q8TE23 with tags, fused parts or gaps with the stated changes limits assumed): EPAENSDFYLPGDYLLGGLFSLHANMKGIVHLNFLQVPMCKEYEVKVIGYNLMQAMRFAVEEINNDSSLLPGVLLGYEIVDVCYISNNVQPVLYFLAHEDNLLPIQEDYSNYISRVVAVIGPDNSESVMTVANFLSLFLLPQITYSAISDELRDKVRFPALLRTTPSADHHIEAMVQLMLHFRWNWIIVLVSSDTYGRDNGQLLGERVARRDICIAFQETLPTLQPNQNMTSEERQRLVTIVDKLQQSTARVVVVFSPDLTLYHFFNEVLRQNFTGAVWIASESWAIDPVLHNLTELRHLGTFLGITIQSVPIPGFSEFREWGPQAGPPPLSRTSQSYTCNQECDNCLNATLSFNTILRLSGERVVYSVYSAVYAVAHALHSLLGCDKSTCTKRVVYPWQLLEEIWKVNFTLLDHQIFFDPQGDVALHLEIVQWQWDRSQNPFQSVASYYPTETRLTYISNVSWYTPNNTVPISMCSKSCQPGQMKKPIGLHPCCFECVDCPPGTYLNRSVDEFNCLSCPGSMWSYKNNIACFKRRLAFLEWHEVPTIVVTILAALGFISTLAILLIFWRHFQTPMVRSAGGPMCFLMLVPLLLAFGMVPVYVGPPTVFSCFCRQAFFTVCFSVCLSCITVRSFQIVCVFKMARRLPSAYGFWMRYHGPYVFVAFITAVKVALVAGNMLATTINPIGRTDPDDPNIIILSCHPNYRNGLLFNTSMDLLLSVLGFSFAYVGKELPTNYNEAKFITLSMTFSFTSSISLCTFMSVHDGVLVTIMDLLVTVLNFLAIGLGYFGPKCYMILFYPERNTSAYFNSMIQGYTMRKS
Sequence (Q925D8 with tags, fused parts or gaps with the stated changes limits assumed): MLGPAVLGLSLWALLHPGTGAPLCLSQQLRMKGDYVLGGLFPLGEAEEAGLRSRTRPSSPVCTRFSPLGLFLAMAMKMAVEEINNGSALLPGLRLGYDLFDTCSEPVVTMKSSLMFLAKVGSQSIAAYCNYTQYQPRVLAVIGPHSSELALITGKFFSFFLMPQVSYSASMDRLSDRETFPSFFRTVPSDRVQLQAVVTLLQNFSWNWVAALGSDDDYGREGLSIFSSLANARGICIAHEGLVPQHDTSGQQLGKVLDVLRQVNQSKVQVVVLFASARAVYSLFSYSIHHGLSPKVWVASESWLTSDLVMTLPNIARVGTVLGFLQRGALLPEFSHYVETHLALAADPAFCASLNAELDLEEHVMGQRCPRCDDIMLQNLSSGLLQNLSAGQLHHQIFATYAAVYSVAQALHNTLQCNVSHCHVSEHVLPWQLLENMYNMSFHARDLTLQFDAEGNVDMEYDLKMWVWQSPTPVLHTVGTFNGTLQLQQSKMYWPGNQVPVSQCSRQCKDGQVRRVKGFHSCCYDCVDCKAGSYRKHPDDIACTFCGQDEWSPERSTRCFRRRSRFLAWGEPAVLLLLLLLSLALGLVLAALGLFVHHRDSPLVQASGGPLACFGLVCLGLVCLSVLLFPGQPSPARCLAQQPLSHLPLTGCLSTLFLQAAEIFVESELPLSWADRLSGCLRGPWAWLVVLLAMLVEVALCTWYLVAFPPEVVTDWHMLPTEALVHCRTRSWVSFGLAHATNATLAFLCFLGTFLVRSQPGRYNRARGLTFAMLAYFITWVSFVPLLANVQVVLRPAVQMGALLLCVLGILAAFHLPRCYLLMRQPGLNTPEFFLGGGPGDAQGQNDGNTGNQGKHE

| SMILES | S/N |
| --- | --- |
| OC[C@H]1O[C@H](O[C@]2(CCl)O[C@H](CCl)[C@@H](O)[C@@H]2O)[C@H](O)[C@@H](O)[C@H]1Cl [Sucralose, sucralose] | 7.1 |
| CC1=CC(=O)NS(=O)(=O)O1 [Acesulfame K, acesulfame potassium] | 4.3 |
| COC(=O)[C@H](Cc1ccccc1)NC(=O)[C@H](CC(=O)O)NCCCc1ccc(OC)c(O)c1 [Advantame, advantame] | 10.0 |
| OC[C@H]1O[C@@](CO)(O[C@H]2O[C@H](CO)[C@@H](O)[C@H](O)[C@H]2O)[C@@H](O)[C@@H]1O [Sucrose, sucrose] | 3.5 |
| COC(=O)[C@H](Cc1ccccc1)NC(=O)[C@H](CC(=O)O)NCCC(C)(C)C [Neotame, neotame] | 8.3 |
| C[C@H](NC(=Nc1ccc(C#N)cc1)NCC(=O)O)c1ccccc1 [SC-45647, [3-[(S)-1-phenylethyl]-2-(4-cyanophenyl)guanidino]acetic acid] | 6.5 |
| O=C1NS(=O)(=O)c2ccccc21.[Na] [Saccharin Na, sodium saccharin] | 3.9 |
| COC(=O)[C@H](Cc1ccccc1)NC(=O)[C@@H](N)CC(=O)O [Aspartame, aspartame] (HELM PEPTIDE1{D.F.[CO[*:1]]}$$$$V2.0) | 7.9 |
